Reference: paper PMC10720369 (Frontiers in Plant Science, 2023)

Test system: ScAMT3;3
Conditions: labelled compound; 0-500 µM 15N-NH4+; 35-d-old N-starved plants; line 35S::ScAMT3;3 by results and Figure 4C (methods b28 say proScAMT3;3 line); residual qko uptake present; NH3 may be the transported

Work on `N` [NH4+] yielded a Km of 271 µM.
